Values joined by “and” are separate entries in the source; they are usually repeats but may differ in a detail not shown here. Equal values may be shown once. Read-outs that look alike come from different tables or passages of the source. Where a SMILES comes first, the peptide text is derived from it.

The results in this text go back to patent publication US20220282217A1, “COMPOSITIONS AND METHODS FOR PREPARING T CELL COMPOSITIONS AND USES THEREOF” (priority 2019, published 2022).

The test system of assay [1] is HLA-A24.02. Briefly: Class I MHC peptide binding stability (pMHC-I dissociation, 125I-labeled light chain). Also on record: species or system human. The following applies: allele A24.02.
The target in assay [2] is HLA-A24.02. Kind of assay: Class I MHC peptide binding affinity (displacement of radiolabeled reference peptide). Also on record: species or system human. The following applies: allele A24.02; read-out: Observed Affinity (IC50; (nM)).
The target in assay [3] is T1, HLA-A02.01 (Homo sapiens, UniProt P04439, D140Y/D185E/D98H/E176V/E277Q/G131W/G231S/I119V/I121R/I166T/I218V/N151K/N90K/P208A/P217A/Q86G/Q94H/R138H/R169H).
T1 construct: made in house; host or cells: E. coli
Kind of assay: Class I MHC peptide binding stability (pMHC-I dissociation, 125I-labeled light chain). The following applies: allele A02.01.

For assay [4], the target named is T2, HLA-B07.02 (Homo sapiens, UniProt P01889). Described as above. Also on record: made in house; host or cells: E. coli. The following applies: Allele B07.02.
Assay [5] has as its target HLA-A02.01 (Homo sapiens, UniProt P04439, D140Y/D185E/D98H/E176V/E277Q/G131W/G231S/I119V/I121R/I166T/I218V/L300P/L318F/N151K/N90K/P208A/P217A/Q86G/Q94H/R138H/R169H/T345S). Briefly: Class I MHC peptide binding affinity (displacement of radiolabeled reference peptide). The following applies: allele A02.01, (nM)). A digest of the protocol:
(§1)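 Steps: form MHCI complexes carrying labeled reference peptide; add competitor peptides at graded doses; incubate 2 days; separate complex-bound from free label by size-exclusion chromatography and count what remains bound.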

For assay [6], the target named is T2, HLA-B07.02. The description is as above. The settings on record: Allele B07.02; read-out: Observed Affinity (IC50; (nM)).
Assay [7] concerns the target HLA-B08.01 (Homo sapiens, UniProt P01889, A93T/A95T/D138N/E176V/E187T/K202T/Q94N/R180D/S35A/V36M/Y33D/Y91F). Described as above. A digest of the protocol:
as §1

Where [8] appears, read: read-out: Observed Affinity (IC50.

As usually defined, the IC50 is the concentration that gives 50% inhibition. With `CC[C@H](C)[C@H](NC(=O)[C@H](Cc1ccccc1)NC(=O)[C@H](CCCNC(=N)N)NC(=O)[C@@H]1CCCN1C(=O)[C@H](CC(C)C)NC(=O)[C@@H](N)CO)C(=O)N[C@@H](CC(C)C)C(=O)N[C@@H](CCSC)C(=O)N[C@@H](CCC(=O)O)C(=O)N[C@@H](CC(C)C)C(=O)O`, the “Stability (T1/2 (h))” value is 0.2 h in assay [1], 0.5 h in assay [3] and 0.4 h in assay [4]. Besides, the IC50 worked out at 2770 nM in assay [2] and 26 nM in assay [5] (setting [8]).
For the compound `CC[C@H](C)[C@H](NC(=O)[C@H](CCCCN)NC(=O)[C@H](C)NC(=O)[C@@H](NC(=O)[C@@H](N)CCCNC(=N)N)C(C)C)C(=O)N[C@@H](C)C(=O)N[C@@H](CC(=O)O)C(=O)N[C@@H](Cc1ccccc1)C(=O)NCC(=O)N[C@@H](CCSC)C(=O)O` (H-RVAKIADFGM-OH; N-terminus and C-terminus assumed), the 50% inhibitory concentration (IC50) in assay [6] turned out to be 9720 nM; in assay [5] (setting [8]), 125 nM. Besides, the entries for the “Stability (T1/2 (h))” value in assay [3] and in assay [4] were 0.5 h and 0.2 h, respectively.
Regarding `CSCC[C@H](NC(=O)[C@H](CC(C)C)NC(=O)[C@@H](N)CCCCN)C(=O)N[C@@H](CC(C)C)C(=O)N[C@@H](CC(C)C)C(=O)N[C@@H](CCCNC(=N)N)C(=O)N[C@@H](CC(C)C)C(=O)N[C@@H](CC(N)=O)C(=O)N[C@@H](CC(C)C)C(=O)O`, the “Stability (T1/2 (h))” value in assay [3] came to 16.9 h; in assay [4], 1.5 h. Also, the IC50 in assay [5] (setting [8]) is 17 nM and 2.6 nM.
As to `CC(C)[C@H](NC(=O)[C@H](CO)NC(=O)[C@@H](NC(=O)[C@@H](NC(=O)[C@H](C)NC(=O)[C@H](C)NC(=O)[C@H](CCCNC(=N)N)NC(=O)[C@@H](NC(=O)[C@@H]1CCCN1C(=O)[C@@H](N)CCCCN)[C@@H](C)O)[C@@H](C)O)C(C)C)C(=O)O` (H-KPTRAATVSV-OH; N-terminus and C-terminus assumed), the IC50 in assay [6] is 8 nM. Moreover, the “Stability (T1/2 (h))” value in assay [4] amounted to 3 h.
In the case of `CC(C)C[C@H](N)C(=O)N[C@@H](C)C(=O)N[C@H](C(=O)N[C@@H](CCC(=O)O)C(=O)N[C@@H](CCCCN)C(=O)N[C@@H](CO)C(=O)N[C@@H](CCCNC(=N)N)C(=O)N[C@@H](Cc1c[nH]c2ccccc12)C(=O)N[C@@H](CO)C(=O)NCC(=O)O)[C@@H](C)O` (H-LATEKSRWSG-OH; N-terminus and C-terminus assumed), the IC50 in assay [5] (Observed Affinity (IC50) came to 23300 nM; in assay [7], 46600 nM.
In the case of `CC(C)C[C@H](NC(=O)[C@H](CO)NC(=O)[C@H](CCCCN)NC(=O)[C@H](CC(C)C)NC(=O)[C@@H](NC(=O)[C@H](CO)NC(=O)[C@@H]1CCCN1C(=O)[C@H](CC(C)C)NC(=O)[C@@H](N)Cc1ccccc1)[C@@H](C)O)C(=O)O`, the “Stability (T1/2 (h))” value in assay [1] was 1 h. Further, the values for the half-inhibitory concentration (IC50) in assay [2], in assay [5] (Observed Affinity (IC50) and in assay [7] were 995 nM, 21 nM and 1970 nM, respectively.
On to `CC[C@H](C)[C@H](NC(=O)[C@@H](NC(=O)[C@H](CC(C)C)NC(=O)[C@@H](NC(=O)[C@@H]1CCCN1C(=O)[C@H](CCCNC(=N)N)NC(=O)[C@H](Cc1c[nH]c2ccccc12)NC(=O)[C@H](CC(N)=O)NC(=O)[C@@H](N)CCSC)[C@@H](C)CC)[C@@H](C)O)C(=O)O` (H-MNWRPILTI-OH; N-terminus and C-terminus assumed), for which the “Stability (T1/2 (h))” value came out at 0.2 h in assay [1] and 3.8 h in assay [3]. For the same compound, the IC50 in assay [2] came to 6980 nM; in assay [5] (setting [8]), 516 nM.
With `CC(C)C[C@H](N)C(=O)N1CCC[C@H]1C(=O)N[C@@H](CCCNC(=N)N)C(=O)N[C@@H](CCCCN)C(=O)N1CCC[C@H]1C(=O)N[C@H](C(=O)N[C@@H](CCCNC(=N)N)C(=O)N[C@@H](C)C(=O)N[C@@H](C)C(=O)N[C@H](C(=O)O)[C@@H](C)O)[C@@H](C)O` (H-LPRKPTRAAT-OH; N-terminus and C-terminus assumed), in assay [6], the IC50 turned out to be 3 nM. Further, the “Stability (T1/2 (h))” value in assay [4] amounted to 3.7 h.
For `CC(C)C[C@H](NC(=O)[C@H](CC(C)C)NC(=O)[C@H](CC(C)C)NC(=O)CNC(=O)[C@H](Cc1ccc(O)cc1)NC(=O)[C@H](CC(C)C)NC(=O)[C@@H]1CCCN1C(=O)[C@@H](NC(=O)[C@@H](N)C(C)C)C(C)C)C(=O)O`, the “Stability (T1/2 (h))” value in assay [1] was found to be 0.8 h; in assay [3], 0.6 h. For the same compound, the IC50 was found to be 658 nM in assay [2] and 1040 nM in assay [5] (setting [8]).
Take `CC(C)C[C@H](N)C(=O)N1CCC[C@H]1C(=O)N[C@@H](CCCNC(=N)N)C(=O)N[C@@H](CCCCN)C(=O)N1CCC[C@H]1C(=O)N[C@H](C(=O)N[C@@H](CCCNC(=N)N)C(=O)N[C@@H](C)C(=O)N[C@@H](C)C(=O)O)[C@@H](C)O`: the “Stability (T1/2 (h))” value in assay [4] amounted to 5.5 h.
On to `CC(C)C[C@H](NC(=O)[C@H](CC(=O)O)NC(=O)[C@H](CO)NC(=O)[C@H](CCC(N)=O)NC(=O)[C@H](CCC(N)=O)NC(=O)[C@H](CCC(N)=O)NC(=O)[C@H](CCC(N)=O)NC(=O)[C@H](CCC(N)=O)NC(=O)[C@@H](N)Cc1ccc(O)cc1)C(=O)O` (H-YQQQQQSDL-OH; N-terminus and C-terminus assumed), for which the “Stability (T1/2 (h))” value in assay [3] turned out to be 0.4 h. The 50% inhibitory concentration (IC50) in assay [5] (Observed Affinity (IC50) was found to be 799 nM; in assay [7] it was 18900 nM.
For the compound `CC[C@H](C)[C@H](NC(=O)[C@H](CO)NC(=O)[C@H](Cc1c[nH]c2ccccc12)NC(=O)[C@H](Cc1c[nH]cn1)NC(=O)[C@H](C)NC(=O)[C@@H]1CCCN1C(=O)[C@H](CCSC)NC(=O)[C@H](CC(C)C)NC(=O)[C@@H](N)CO)C(=O)O`, the “Stability (T1/2 (h))” value is listed as 0.4 h in assay [1] and 5 h in assay [3]. Moreover, the figures for the IC50 in assay [2] and in assay [5] (setting [8]) were 633 nM and 48 nM, respectively.
`CC(C)C[C@H](NC(=O)[C@@H]1CCCN1C(=O)[C@H](CO)NC(=O)[C@H](CCCNC(=N)N)NC(=O)[C@H](CC(C)C)NC(=O)[C@H](CCCCN)NC(=O)[C@H](CCCCN)NC(=O)[C@@H](N)CC(C)C)C(=O)O` (H-LKKLRSPL-OH; N-terminus and C-terminus assumed) had an IC50 in assay [7] of 0.6 nM.
As for `CC(C)C[C@H](NC(=O)[C@H](C)NC(=O)[C@@H](NC(=O)[C@H](CCCNC(=N)N)NC(=O)[C@H](CO)NC(=O)[C@H](CC(=O)O)NC(=O)[C@H](CO)NC(=O)[C@H](CC(C)C)NC(=O)[C@@H](N)CCCCN)[C@@H](C)O)C(=O)O` [KLSDSRTAL], the “Stability (T1/2 (h))” value is reported as 2.8 h in assay [3] and 6.8 h in assay [4].
As for `C[C@H](NC(=O)[C@H](CO)NC(=O)[C@H](C)NC(=O)[C@@H]1CCCN1C(=O)[C@H](C)NC(=O)[C@@H]1CCCN1C(=O)[C@H](CCCNC(=N)N)NC(=O)[C@@H]1CCCN1C(=O)[C@@H](N)Cc1c[nH]cn1)C(=O)O`, in assay [4], the “Stability (T1/2 (h))” value stood at 4.9 h.
As to `CC[C@H](C)[C@H](NC(=O)[C@H](CC(N)=O)NC(=O)[C@H](CCSC)NC(=O)[C@H](Cc1c[nH]cn1)NC(=O)[C@H](CC(N)=O)NC(=O)CNC(=O)[C@H](CC(C)C)NC(=O)[C@@H](N)Cc1ccc(O)cc1)C(=O)N[C@@H](C)C(=O)O` (H-YLGNHMNIA-OH; N-terminus and C-terminus assumed), the “Stability (T1/2 (h))” value in assay [3] was determined as 0.6 h. The IC50 in assay [5] (Observed Affinity (IC50) worked out at 117 nM; in assay [7] it was 872 nM.
On to `CC(C)C[C@H](NC(=O)[C@@H]1CCCN1C(=O)[C@@H]1CCCN1C(=O)[C@@H](NC(=O)[C@H](CO)NC(=O)[C@H](CC(C)C)NC(=O)[C@H](CC(C)C)NC(=O)[C@H](CCC(=O)O)NC(=O)[C@@H](N)Cc1ccccc1)[C@@H](C)O)C(=O)O` (H-FELLSTPPL-OH; N-terminus and C-terminus assumed), for which the results for the IC50 in assay [5] (Observed Affinity (IC50) and in assay [7] were 225 nM and 3180 nM, respectively.
Turning to `CC(C)C[C@H](NC(=O)[C@H](C)N)C(=O)N[C@@H](CO)C(=O)N[C@@H](C)C(=O)N[C@@H](CO)C(=O)N[C@@H](CC(N)=O)C(=O)N[C@@H](CO)C(=O)N[C@@H](CS)C(=O)N[C@@H](Cc1ccccc1)C(=O)O` (H-ALSASNSCF-OH; N-terminus and C-terminus assumed), the “Stability (T1/2 (h))” value in assay [1] amounted to 0.2 h; in assay [3], 0.3 h. Also, the figures for the IC50 in assay [2], in assay [6] and in assay [5] (setting [8]) were 16300 nM, 684 nM and 728 nM, respectively.
With `CC(C)C[C@H](N)C(=O)N[C@@H](C)C(=O)N[C@H](C(=O)N[C@@H](CCC(=O)O)C(=O)N[C@@H](CCCCN)C(=O)N[C@@H](CO)C(=O)N[C@@H](CCCNC(=N)N)C(=O)N[C@@H](Cc1c[nH]c2ccccc12)C(=O)N[C@@H](CO)C(=O)O)[C@@H](C)O` (H-LATEKSRWS-OH; N-terminus and C-terminus assumed), the IC50 was 61000 nM in assay [5] (Observed Affinity (IC50) and 37000 nM in assay [7].
